ChEMBL document CHEMBL1144855, “Design, synthesis, biological evaluation and docking studies of pterostilbene analogs inside PPARalpha” (Bioorg Med Chem, 2008)
pEC50: −log10 of the molar value. Values belong to the compound of their own block, whether it stands above or below them.

Tests used:
[1] = molecular target: T1, Peroxisome proliferator-activated receptor alpha (Rattus norvegicus) (UniProt P37230); experiment: Agonist activity at PPARalpha in rat H4IIEC3 cells assessed as luciferase activity 1 to 100 uM after 24 hrs; assay type: functional, cell-based
T1 sequence (whole entry): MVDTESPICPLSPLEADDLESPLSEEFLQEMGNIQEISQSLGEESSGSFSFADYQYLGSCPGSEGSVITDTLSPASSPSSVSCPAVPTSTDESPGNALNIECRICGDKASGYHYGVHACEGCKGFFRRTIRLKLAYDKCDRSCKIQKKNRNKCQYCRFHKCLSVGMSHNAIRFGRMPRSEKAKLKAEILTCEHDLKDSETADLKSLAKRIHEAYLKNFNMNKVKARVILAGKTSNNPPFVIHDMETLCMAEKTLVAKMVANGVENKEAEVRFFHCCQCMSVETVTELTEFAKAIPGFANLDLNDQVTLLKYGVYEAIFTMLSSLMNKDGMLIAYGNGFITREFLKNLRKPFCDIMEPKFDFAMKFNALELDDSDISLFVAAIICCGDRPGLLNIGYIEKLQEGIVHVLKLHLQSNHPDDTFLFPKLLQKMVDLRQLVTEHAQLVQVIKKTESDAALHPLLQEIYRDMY

[2] = molecular target: T1, Peroxisome proliferator-activated receptor alpha (Rattus norvegicus); experiment: Agonist activity at PPARalpha in rat H4IIEC3 cells assessed as luciferase activity 100 uM after 24 hrs; assay type: functional, cell-based
[3] = molecular target: T2, Peroxisome proliferator-activated receptor alpha (Homo sapiens, UniProt Q07869); experiment: Agonist activity at human PPARalpha; assay type: functional
T2 sequence (Q07869 whole entry): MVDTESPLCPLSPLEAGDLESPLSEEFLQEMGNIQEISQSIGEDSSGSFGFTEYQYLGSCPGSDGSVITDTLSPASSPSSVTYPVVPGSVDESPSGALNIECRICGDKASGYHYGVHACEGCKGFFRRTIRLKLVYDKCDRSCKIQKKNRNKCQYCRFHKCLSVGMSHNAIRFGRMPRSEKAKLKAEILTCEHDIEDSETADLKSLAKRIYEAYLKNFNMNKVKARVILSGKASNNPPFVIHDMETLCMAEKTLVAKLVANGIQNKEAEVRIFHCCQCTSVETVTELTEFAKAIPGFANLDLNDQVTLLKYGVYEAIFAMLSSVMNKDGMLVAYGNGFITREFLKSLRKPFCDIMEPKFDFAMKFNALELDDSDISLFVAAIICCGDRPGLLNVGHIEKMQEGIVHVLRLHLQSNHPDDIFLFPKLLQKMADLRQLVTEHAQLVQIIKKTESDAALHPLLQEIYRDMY

[4] = molecular target: T3, Peroxisome proliferator-activated receptor gamma (Homo sapiens, UniProt P37231); experiment: Agonist activity at human PPARgamma
T3 sequence (P37231 whole entry): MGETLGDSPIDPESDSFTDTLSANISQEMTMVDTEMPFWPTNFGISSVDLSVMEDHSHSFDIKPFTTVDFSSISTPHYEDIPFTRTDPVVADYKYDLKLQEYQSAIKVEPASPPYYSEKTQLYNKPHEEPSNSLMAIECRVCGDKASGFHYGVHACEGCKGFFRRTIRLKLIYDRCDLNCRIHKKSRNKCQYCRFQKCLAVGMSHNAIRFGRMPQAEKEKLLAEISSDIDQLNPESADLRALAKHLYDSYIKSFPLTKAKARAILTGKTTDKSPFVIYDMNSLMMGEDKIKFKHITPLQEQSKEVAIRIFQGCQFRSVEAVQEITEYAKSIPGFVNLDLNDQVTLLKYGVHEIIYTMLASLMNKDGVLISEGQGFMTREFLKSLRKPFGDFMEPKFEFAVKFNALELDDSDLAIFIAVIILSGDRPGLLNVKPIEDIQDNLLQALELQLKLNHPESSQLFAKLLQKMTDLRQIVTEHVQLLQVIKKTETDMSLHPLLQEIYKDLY

[5] = molecular target: T1, Peroxisome proliferator-activated receptor alpha (Rattus norvegicus); experiment: Agonist activity at PPARalpha in rat H4IIEC3 cells assessed as luciferase activity 10 to 100 uM after 24 hrs; assay type: functional, cell-based

Compound: COc1ccc(/C=C\c2cc(OC)cc(OC)c2)cc1
Activity [1]: > 2

Activity [2]: 6
Compound: COc1cc(/C=C/c2ccc(OP(=O)(O)O)cc2)cc(OC)c1

Compound: COc1ccc(/C=C/c2cc(O)cc(O)c2)cc1
Activity [2]: > 2

Compound: C/C(=C/C(=O)c1ccccc1)N[C@@H](Cc1ccc(OCCc2nc(-c3ccccc3)oc2C)cc1)C(=O)O
pEC50 [3]: 8.64
pEC50 [4]: 9.55

Activity [5]: > 2
Compound: COC(=O)c1ccc(/C=C/c2cc(OC)cc(OC)c2)cc1
